Measurements published in the NIST ThermoML archive (doi:10.1016/j.jct.2012.03.031).
± gives the expanded uncertainty stated by the source.

Experiment: molar heat capacity at constant pressure
Settings: 101.33 kPa

CCCCc1ccc(C(=O)Oc2ccc(C#N)c(F)c2)cc1 [4-cyano-3-fluorophenyl 4-butylbenzoate]
Settings | molar heat capacity at constant pressure [J/K/mol]
4.918 K, Crystal 1, Small (less than 1 g) adiabatic calorimetry | 1.032 ± 0.14
5 K, Crystal 1, Vacuum adiabatic calorimetry | 1.08 ± 0.22
5 K, Crystal 2, Vacuum adiabatic calorimetry | 1.44 ± 0.26
5.052 K, Crystal 2, Small (less than 1 g) adiabatic calorimetry | 1.482 ± 0.18
5.07 K, Crystal 1, Small (less than 1 g) adiabatic calorimetry | 1.127 ± 0.14
5.575 K, Crystal 1, Small (less than 1 g) adiabatic calorimetry | 1.448 ± 0.16
5.722 K, Crystal 2, Small (less than 1 g) adiabatic calorimetry | 2.06 ± 0.2
5.747 K, Crystal 1, Small (less than 1 g) adiabatic calorimetry | 1.591 ± 0.16
6.284 K, Crystal 1, Small (less than 1 g) adiabatic calorimetry | 2.011 ± 0.18
6.538 K, Crystal 2, Small (less than 1 g) adiabatic calorimetry | 2.901 ± 0.23
6.573 K, Crystal 1, Small (less than 1 g) adiabatic calorimetry | 2.293 ± 0.19
7.108 K, Crystal 1, Small (less than 1 g) adiabatic calorimetry | 2.802 ± 0.22
7.413 K, Crystal 2, Small (less than 1 g) adiabatic calorimetry | 3.946 ± 0.27
7.456 K, Crystal 1, Small (less than 1 g) adiabatic calorimetry | 3.2 ± 0.23
8.006 K, Crystal 1, Small (less than 1 g) adiabatic calorimetry | 3.815 ± 0.25
8.284 K, Crystal 2, Small (less than 1 g) adiabatic calorimetry | 5.139 ± 0.3
8.384 K, Crystal 1, Small (less than 1 g) adiabatic calorimetry | 4.319 ± 0.27
8.948 K, Crystal 1, Small (less than 1 g) adiabatic calorimetry | 5.034 ± 0.28
9.21 K, Crystal 2, Small (less than 1 g) adiabatic calorimetry | 6.549 ± 0.34
9.353 K, Crystal 1, Small (less than 1 g) adiabatic calorimetry | 5.638 ± 0.3
9.931 K, Crystal 1, Small (less than 1 g) adiabatic calorimetry | 6.451 ± 0.32
10 K, Crystal 1, Vacuum adiabatic calorimetry | 6.56 ± 0.34
10 K, Crystal 2, Vacuum adiabatic calorimetry | 7.87 ± 0.38
10.23 K, Crystal 2, Small (less than 1 g) adiabatic calorimetry | 8.254 ± 0.37
10.31 K, Crystal 1, Small (less than 1 g) adiabatic calorimetry | 7.064 ± 0.33
10.88 K, Crystal 1, Small (less than 1 g) adiabatic calorimetry | 7.93 ± 0.34
11.24 K, Crystal 2, Small (less than 1 g) adiabatic calorimetry | 10.07 ± 0.4
11.26 K, Crystal 1, Small (less than 1 g) adiabatic calorimetry | 8.608 ± 0.35
11.81 K, Crystal 1, Small (less than 1 g) adiabatic calorimetry | 9.492 ± 0.36
12.23 K, Crystal 1, Small (less than 1 g) adiabatic calorimetry | 10.25 ± 0.38
12.28 K, Crystal 2, Small (less than 1 g) adiabatic calorimetry | 12.04 ± 0.42
12.81 K, Crystal 1, Small (less than 1 g) adiabatic calorimetry | 11.22 ± 0.39
13.24 K, Crystal 1, Small (less than 1 g) adiabatic calorimetry | 12.07 ± 0.4
13.39 K, Crystal 2, Small (less than 1 g) adiabatic calorimetry | 14.28 ± 0.45
13.89 K, Crystal 1, Small (less than 1 g) adiabatic calorimetry | 13.26 ± 0.41
14.32 K, Crystal 1, Small (less than 1 g) adiabatic calorimetry | 14.11 ± 0.41
14.71 K, Crystal 2, Small (less than 1 g) adiabatic calorimetry | 17 ± 0.48
15.07 K, Crystal 1, Small (less than 1 g) adiabatic calorimetry | 15.49 ± 0.44
15.47 K, Crystal 1, Small (less than 1 g) adiabatic calorimetry | 16.32 ± 0.44
16.2 K, Crystal 2, Small (less than 1 g) adiabatic calorimetry | 20.27 ± 0.5
16.43 K, Crystal 1, Small (less than 1 g) adiabatic calorimetry | 18.21 ± 0.46
16.76 K, Crystal 1, Small (less than 1 g) adiabatic calorimetry | 18.95 ± 0.47
17.73 K, Crystal 2, Small (less than 1 g) adiabatic calorimetry | 23.69 ± 0.53
18.05 K, Crystal 1, Small (less than 1 g) adiabatic calorimetry | 21.6 ± 0.49
18.4 K, Crystal 1, Small (less than 1 g) adiabatic calorimetry | 22.4 ± 0.49
19.39 K, Crystal 2, Small (less than 1 g) adiabatic calorimetry | 27.53 ± 0.55
19.84 K, Crystal 1, Small (less than 1 g) adiabatic calorimetry | 25.4 ± 0.51
20 K, Crystal 1, Vacuum adiabatic calorimetry | 25.75 ± 0.45
20 K, Crystal 2, Vacuum adiabatic calorimetry | 28.93 ± 0.49
20.07 K, Crystal 1, Small (less than 1 g) adiabatic calorimetry | 25.94 ± 0.51
21.11 K, Crystal 2, Small (less than 1 g) adiabatic calorimetry | 31.48 ± 0.57
21.53 K, Crystal 1, Small (less than 1 g) adiabatic calorimetry | 29.12 ± 0.53
21.58 K, Crystal 1, Small (less than 1 g) adiabatic calorimetry | 29.19 ± 0.53
22.83 K, Crystal 2, Small (less than 1 g) adiabatic calorimetry | 35.46 ± 0.58
23.05 K, Crystal 1, Small (less than 1 g) adiabatic calorimetry | 32.44 ± 0.54
23.28 K, Crystal 1, Small (less than 1 g) adiabatic calorimetry | 32.87 ± 0.55
24.53 K, Crystal 2, Small (less than 1 g) adiabatic calorimetry | 39.3 ± 0.59
24.67 K, Crystal 1, Small (less than 1 g) adiabatic calorimetry | 35.93 ± 0.56
24.93 K, Crystal 1, Small (less than 1 g) adiabatic calorimetry | 36.45 ± 0.56
26.2 K, Crystal 2, Small (less than 1 g) adiabatic calorimetry | 43.02 ± 0.61
26.34 K, Crystal 1, Small (less than 1 g) adiabatic calorimetry | 39.52 ± 0.58
26.69 K, Crystal 1, Small (less than 1 g) adiabatic calorimetry | 40.25 ± 0.58
27.89 K, Crystal 2, Small (less than 1 g) adiabatic calorimetry | 47.05 ± 0.63
27.96 K, Crystal 1, Small (less than 1 g) adiabatic calorimetry | 43.27 ± 0.6
28.5 K, Crystal 1, Small (less than 1 g) adiabatic calorimetry | 44.43 ± 0.6
29.49 K, Crystal 1, Small (less than 1 g) adiabatic calorimetry | 46.73 ± 0.6
29.58 K, Crystal 2, Small (less than 1 g) adiabatic calorimetry | 50.91 ± 0.62
30 K, Crystal 1, Vacuum adiabatic calorimetry | 47.75 ± 0.52
30 K, Crystal 2, Vacuum adiabatic calorimetry | 51.82 ± 0.55
30.38 K, Crystal 1, Small (less than 1 g) adiabatic calorimetry | 48.59 ± 0.57
30.97 K, Crystal 1, Small (less than 1 g) adiabatic calorimetry | 49.89 ± 0.58
31.27 K, Crystal 2, Small (less than 1 g) adiabatic calorimetry | 54.58 ± 0.6
32.25 K, Crystal 1, Small (less than 1 g) adiabatic calorimetry | 52.59 ± 0.58
32.3 K, Crystal 1, Small (less than 1 g) adiabatic calorimetry | 52.61 ± 0.58
32.73 K, Crystal 2, Small (less than 1 g) adiabatic calorimetry | 57.73 ± 0.62
33.42 K, Crystal 1, Small (less than 1 g) adiabatic calorimetry | 55.02 ± 0.6
34.08 K, Crystal 2, Small (less than 1 g) adiabatic calorimetry | 60.65 ± 0.63
34.18 K, Crystal 1, Small (less than 1 g) adiabatic calorimetry | 56.62 ± 0.61
34.66 K, Crystal 1, Small (less than 1 g) adiabatic calorimetry | 57.7 ± 0.61
35.58 K, Crystal 2, Small (less than 1 g) adiabatic calorimetry | 63.81 ± 0.64
35.96 K, Crystal 1, Small (less than 1 g) adiabatic calorimetry | 60.42 ± 0.62
36.15 K, Crystal 1, Small (less than 1 g) adiabatic calorimetry | 60.78 ± 0.62
37.11 K, Crystal 2, Small (less than 1 g) adiabatic calorimetry | 67 ± 0.65
37.29 K, Crystal 1, Small (less than 1 g) adiabatic calorimetry | 63.17 ± 0.63
38.18 K, Crystal 1, Small (less than 1 g) adiabatic calorimetry | 64.88 ± 0.63
38.66 K, Crystal 1, Small (less than 1 g) adiabatic calorimetry | 65.91 ± 0.64
38.66 K, Crystal 2, Small (less than 1 g) adiabatic calorimetry | 70.19 ± 0.66
40 K, Crystal 1, Vacuum adiabatic calorimetry | 68.45 ± 0.58
40 K, Crystal 2, Vacuum adiabatic calorimetry | 72.67 ± 0.6
40.05 K, Crystal 1, Small (less than 1 g) adiabatic calorimetry | 68.62 ± 0.65
40.1 K, Crystal 2, Small (less than 1 g) adiabatic calorimetry | 72.86 ± 0.66
40.24 K, Crystal 1, Small (less than 1 g) adiabatic calorimetry | 68.92 ± 0.65
41.44 K, Crystal 2, Small (less than 1 g) adiabatic calorimetry | 75.41 ± 0.68
41.46 K, Crystal 1, Small (less than 1 g) adiabatic calorimetry | 71.35 ± 0.66
42.21 K, Crystal 1, Small (less than 1 g) adiabatic calorimetry | 72.67 ± 0.67
42.84 K, Crystal 2, Small (less than 1 g) adiabatic calorimetry | 78.05 ± 0.7
42.89 K, Crystal 1, Small (less than 1 g) adiabatic calorimetry | 74.07 ± 0.67
44.12 K, Crystal 1, Small (less than 1 g) adiabatic calorimetry | 76.27 ± 0.68
44.27 K, Crystal 2, Small (less than 1 g) adiabatic calorimetry | 80.76 ± 0.71
44.33 K, Crystal 1, Small (less than 1 g) adiabatic calorimetry | 76.76 ± 0.68
45.76 K, Crystal 2, Small (less than 1 g) adiabatic calorimetry | 83.54 ± 0.72
45.77 K, Crystal 1, Small (less than 1 g) adiabatic calorimetry | 79.44 ± 0.7
46.11 K, Crystal 1, Small (less than 1 g) adiabatic calorimetry | 79.97 ± 0.7
47.22 K, Crystal 1, Small (less than 1 g) adiabatic calorimetry | 82.08 ± 0.71
47.31 K, Crystal 2, Small (less than 1 g) adiabatic calorimetry | 86.36 ± 0.73
48.17 K, Crystal 1, Small (less than 1 g) adiabatic calorimetry | 83.7 ± 0.72
48.67 K, Crystal 1, Small (less than 1 g) adiabatic calorimetry | 84.74 ± 0.72
48.88 K, Crystal 2, Small (less than 1 g) adiabatic calorimetry | 89.17 ± 0.75
50 K, Crystal 1, Vacuum adiabatic calorimetry | 86.93 ± 0.64
50 K, Crystal 2, Vacuum adiabatic calorimetry | 91.14 ± 0.67
50.13 K, Crystal 1, Small (less than 1 g) adiabatic calorimetry | 87.32 ± 0.73
50.27 K, Crystal 1, Small (less than 1 g) adiabatic calorimetry | 87.41 ± 0.73
50.47 K, Crystal 2, Small (less than 1 g) adiabatic calorimetry | 91.97 ± 0.76
51.6 K, Crystal 1, Small (less than 1 g) adiabatic calorimetry | 89.81 ± 0.75
52.07 K, Crystal 2, Small (less than 1 g) adiabatic calorimetry | 94.74 ± 0.78
52.41 K, Crystal 1, Small (less than 1 g) adiabatic calorimetry | 91.07 ± 0.75
53.06 K, Crystal 1, Small (less than 1 g) adiabatic calorimetry | 92.27 ± 0.76
53.69 K, Crystal 2, Small (less than 1 g) adiabatic calorimetry | 97.39 ± 0.79
54.53 K, Crystal 1, Small (less than 1 g) adiabatic calorimetry | 94.7 ± 0.77
54.59 K, Crystal 1, Small (less than 1 g) adiabatic calorimetry | 94.68 ± 0.77
55.31 K, Crystal 2, Small (less than 1 g) adiabatic calorimetry | 100.11 ± 0.81
56.01 K, Crystal 1, Small (less than 1 g) adiabatic calorimetry | 97.07 ± 0.78
56.79 K, Crystal 1, Small (less than 1 g) adiabatic calorimetry | 98.21 ± 0.79
56.94 K, Crystal 2, Small (less than 1 g) adiabatic calorimetry | 102.73 ± 0.82
57.48 K, Crystal 1, Small (less than 1 g) adiabatic calorimetry | 99.44 ± 0.8
58.59 K, Crystal 2, Small (less than 1 g) adiabatic calorimetry | 105.37 ± 0.84
58.96 K, Crystal 1, Small (less than 1 g) adiabatic calorimetry | 101.75 ± 0.81
58.97 K, Crystal 1, Small (less than 1 g) adiabatic calorimetry | 101.63 ± 0.81
60 K, Crystal 1, Vacuum adiabatic calorimetry | 103.22 ± 0.71
60 K, Crystal 2, Vacuum adiabatic calorimetry | 107.66 ± 0.74
60.24 K, Crystal 2, Small (less than 1 g) adiabatic calorimetry | 108.04 ± 0.85
60.44 K, Crystal 1, Small (less than 1 g) adiabatic calorimetry | 104.07 ± 0.82
61.09 K, Crystal 1, Small (less than 1 g) adiabatic calorimetry | 104.91 ± 0.83
61.9 K, Crystal 2, Small (less than 1 g) adiabatic calorimetry | 110.62 ± 0.86
